{"source": "paper PMC9945734", "about": "(BMC Medicine, 2023)", "tested_on": "PC-3-KQ and PC-3-KR cells", "experiment": "RNA-sequencing and differential gene expression", "format": "cell-based, human", "design": "CEP19 tpm_KQ_NTZ / CCNA1 tpm_KQ_NTZ / BTN3A3 tpm_KQ_NTZ / CAPSL tpm_KQ_NTZ / CELF3 tpm_KQ_NTZ / C5orf63 tpm_KQ_NTZ / tpm MSMP / tpm MYH7B / tpm CACNG8 / CNTNAP3B tpm_KQ_NTZ / IL21R tpm_KQ_NTZ / CYP8B1 tpm_KQ_NTZ / C2orf78 tpm_KQ_NTZ / CALB1 tpm_KQ_NTZ / COL4A3 tpm_KQ_NTZ / CFB tpm_KQ_NTZ / PFKFB1 tpm_KQ_NTZ / BTBD11 tpm_KQ_NTZ: scale not given here", "key": {"[1]": {"settings": "PC-3-KQ cells with NTZ, RNA-Seq, replicates 1-3, listed as NTZ"}}, "note": "Where “and” joins values, the source holds several entries; their conditions need not be identical. Equal values may be shown once."}
{"smiles": "CC(=O)Oc1ccccc1C(=O)Nc1ncc([N+](=O)[O-])s1", "note": "[Nitazoxanide]", "values": [{"measurement": "reversed genes that were downregulated by KLF5^K369Q", "setting": "5 μM, 48 h", "result": 114, "unit": "genes"}, {"measurement": "reversed genes that were upregulated by KLF5^K369Q", "setting": "5 μM, 48 h", "result": 127, "unit": "genes"}, {"measurement": "differentially expressed genes whose KLF5^K369Q-modulated expression patterns were reversed", "setting": "5 μM, 48 h, of 2836 differentially expressed genes", "result": 241, "unit": "genes"}, {"measurement": "BTBD11 tpm_KQ_NTZ", "setting": "[1]", "result": "0.02343 (2×) and -0.3135"}, {"measurement": "BTN3A3 tpm_KQ_NTZ", "setting": "[1]", "result": "0.1048 and 0.06849 and 0.4183"}, {"measurement": "C2orf78 tpm_KQ_NTZ", "setting": "[1]", "result": "-0.1653 (2×) and -0.2557"}, {"measurement": "C5orf63 tpm_KQ_NTZ", "setting": "[1]", "result": "-1.246 and -0.6828 (2×)"}, {"measurement": "CALB1 tpm_KQ_NTZ", "setting": "[1]", "result": "-0.5505 and -0.5318 and -0.6014"}, {"measurement": "CAPSL tpm_KQ_NTZ", "setting": "[1]", "result": "0.1399 and 0.07957 and 0.02817"}, {"measurement": "CCNA1 tpm_KQ_NTZ", "setting": "[1]", "result": "0.2896 and 0.0474 and -0.0329"}, {"measurement": "CELF3 tpm_KQ_NTZ", "setting": "[1]", "result": "-0.6626 and -0.09641 and -1.398"}, {"measurement": "CEP19 tpm_KQ_NTZ", "setting": "[1]", "result": "-0.2178 and -0.1674 and -0.2603"}, {"measurement": "CFB tpm_KQ_NTZ", "setting": "[1]", "result": "1.072 and 0.8732 and 1.006"}, {"measurement": "CNTNAP3B tpm_KQ_NTZ", "setting": "[1]", "result": "-1.003 and -0.7486 and -1.333"}, {"measurement": "COL4A3 tpm_KQ_NTZ", "setting": "[1]", "result": "0.8606 and -0.008515 and 0.09381"}, {"measurement": "CSF1R tpm_KQ_NTZ", "setting": "[1]", "result": "-0.4278 and 0.5782 and -0.287"}, {"measurement": "CSF3 tpm_KQ_NTZ", "setting": "[1]", "result": "-0.1666 and -0.05545 and -0.03443"}, {"measurement": "CYP8B1 tpm_KQ_NTZ", "setting": "[1]", "result": "0.5351 and -0.06455 and 0.239"}, {"measurement": "CYSTM1 tpm_KQ_NTZ", "setting": "[1]", "result": "0.5286 and 0.6762 and 0.7083"}, {"measurement": "DEPTOR tpm_KQ_NTZ", "setting": "[1]", "result": "-0.1625 and 0.109 and -0.5598"}, {"measurement": "DISP1 tpm_KQ_NTZ", "setting": "[1]", "result": "0.9822 and -0.1345 and 0.01324"}, {"measurement": "DMC1 tpm_KQ_NTZ", "setting": "[1]", "result": "0.2859 and -0.2731 and -0.5992"}, {"measurement": "EFCAB6 tpm_KQ_NTZ", "setting": "[1]", "result": "-0.1794 and -0.1071 (2×)"}, {"measurement": "ESPN tpm_KQ_NTZ", "setting": "[1]", "result": "0.1813 and 0.02389 and 0.09131"}, {"measurement": "FA2H tpm_KQ_NTZ", "setting": "[1]", "result": "0.4488 and 0.5616 and 0.5267"}, {"measurement": "FAM43A tpm_KQ_NTZ", "setting": "[1]", "result": "0.03072 and -0.121 and -0.09259"}, {"measurement": "FAM83D tpm_KQ_NTZ", "setting": "[1]", "result": "-0.5519 and -0.6015 and -0.7989"}, {"measurement": "FAM178B tpm_KQ_NTZ", "setting": "[1]", "result": "0.08123 and 0.3901 and 0.3146"}, {"measurement": "FANCI tpm_KQ_NTZ", "setting": "[1]", "result": "-0.4967 and -0.5797 and -1.118"}, {"measurement": "FANCL tpm_KQ_NTZ", "setting": "[1]", "result": "-0.04507 and -0.1672 and -0.6878"}, {"measurement": "FIBCD1 tpm_KQ_NTZ", "setting": "[1]", "result": "0.8945 (2×) and 0.4936"}, {"measurement": "FLI1 tpm_KQ_NTZ", "setting": "[1]", "result": "0.163 and 0.09153 and 0.3476"}, {"measurement": "FLRT1 tpm_KQ_NTZ", "setting": "[1]", "result": "0.02501 and 0.1658 and 0.1094"}, {"measurement": "FOXI1 tpm_KQ_NTZ", "setting": "[1]", "result": "-0.2315 and -0.3686 and -0.4151"}, {"measurement": "FOXP3 tpm_KQ_NTZ", "setting": "[1]", "result": "-0.3022 and -0.9252 and -0.8607"}, {"measurement": "FRY tpm_KQ_NTZ", "setting": "[1]", "result": "0.3424 and 1.196 and 0.3898"}, {"measurement": "FUT3 tpm_KQ_NTZ", "setting": "[1]", "result": "0.2065 and 0.1078 and 0.1213"}, {"measurement": "FZD4 tpm_KQ_NTZ", "setting": "[1]", "result": "-0.8248 and -0.9863 and -1.191"}, {"measurement": "GBX2 tpm_KQ_NTZ", "setting": "[1]", "result": "0.2922 and 0.1832 and -0.01058"}, {"measurement": "GCNT3 tpm_KQ_NTZ", "setting": "[1]", "result": "0.5624 and 1.46 and 1.425"}, {"measurement": "GDPD3 tpm_KQ_NTZ", "setting": "[1]", "result": "0.1549 and 0.8212 and 1.086"}, {"measurement": "GPR19 tpm_KQ_NTZ", "setting": "[1]", "result": "-0.4052 and -1.088 and -0.1444"}, {"measurement": "H3C1 tpm_KQ_NTZ", "setting": "[1]", "result": "-0.4909 and -0.7381 and -0.1713"}, {"measurement": "HAS3 tpm_KQ_NTZ", "setting": "[1]", "result": "-0.7244 and -1.045 and -1.209"}, {"measurement": "HSD3B1 tpm_KQ_NTZ", "setting": "[1]", "result": "0.4147 and -0.0829 and 0.06266"}, {"measurement": "HSPB8 tpm_KQ_NTZ", "setting": "[1]", "result": "1.202 and 1.163 and 1.373"}, {"measurement": "IFITM10 tpm_KQ_NTZ", "setting": "[1]", "result": "0.594 and 0.6249 and 1.26"}, {"measurement": "IGF2BP1 tpm_KQ_NTZ", "setting": "[1]", "result": "-0.6156 and 0.2139 and -0.1353"}, {"measurement": "IGFBP4 tpm_KQ_NTZ", "setting": "[1]", "result": "-0.9714 and -1.052 and -1.107"}, {"measurement": "IGSF23 tpm_KQ_NTZ", "setting": "[1]", "result": "0.2138 and -0.14 and 0.153"}, {"measurement": "IL1RN tpm_KQ_NTZ", "setting": "[1]", "result": "0.4172 and 0.5103 and 0.3837"}, {"measurement": "IL21R tpm_KQ_NTZ", "setting": "[1]", "result": "0.1341 and 0.3531 and -0.6262"}, {"measurement": "IL32 tpm_KQ_NTZ", "setting": "[1]", "result": "0.1915 and 0.128 and 0.2784"}, {"measurement": "IL36RN tpm_KQ_NTZ", "setting": "[1]", "result": "0.2015 and -0.02405 and -0.08881"}, {"measurement": "KDELR2 tpm_KQ_NTZ", "setting": "[1]", "result": "0.386 and 0.3336 and 0.3028"}, {"measurement": "KIAA0319 tpm_KQ_NTZ", "setting": "[1]", "result": "0.8897 and 0.7646 and 0.5228"}, {"measurement": "KLK9 tpm_KQ_NTZ", "setting": "[1]", "result": "-0.2259 and -0.6416 and -0.6693"}, {"measurement": "KRT17 tpm_KQ_NTZ", "setting": "[1]", "result": "-0.1797 and -0.2377 and -0.2552"}, {"measurement": "LGALS12 tpm_KQ_NTZ", "setting": "[1]", "result": "-0.7737 and -0.7092 and -1.317"}, {"measurement": "LILRB3 tpm_KQ_NTZ", "setting": "[1]", "result": "-0.849 and 0.2071 and -0.3616"}, {"measurement": "LOC105373989 tpm_KQ_NTZ", "setting": "[1]", "result": "0.1747 and 0.1405 and -0.01628"}, {"measurement": "LOC107985532 tpm_KQ_NTZ", "setting": "[1]", "result": "-0.4716 and -1.399 and -0.5849"}, {"measurement": "LRRK1 tpm_KQ_NTZ", "setting": "[1]", "result": "0.2201 and 0.2241 and -0.1686"}, {"measurement": "LTB tpm_KQ_NTZ", "setting": "[1]", "result": "0.298 and 0.1911 and 0.1215"}, {"measurement": "LY6K tpm_KQ_NTZ", "setting": "[1]", "result": "0.361 and 0.2663 and 0.3215"}, {"measurement": "MAP2 tpm_KQ_NTZ", "setting": "[1]", "result": "1.038 and 0.7956 and 0.3906"}, {"measurement": "MCM4 tpm_KQ_NTZ", "setting": "[1]", "result": "-0.8715 and -0.9161 and -1.036"}, {"measurement": "METRNL tpm_KQ_NTZ", "setting": "[1]", "result": "-0.141 and -0.421 and -0.3102"}, {"measurement": "MFSD2A tpm_KQ_NTZ", "setting": "[1]", "result": "0.8546 and 0.3607 and 0.5375"}, {"measurement": "MMP9 tpm_KQ_NTZ", "setting": "[1]", "result": "0.4129 and 0.2062 and 0.3482"}, {"measurement": "MNX1 tpm_KQ_NTZ", "setting": "[1]", "result": "0.2275 and -0.9 and 0.1118"}, {"measurement": "MROH8 tpm_KQ_NTZ", "setting": "[1]", "result": "-1.87 and -0.2315 and 0.3664"}, {"measurement": "MVP tpm_KQ_NTZ", "setting": "[1]", "result": "0.5977 and 0.4827 and 0.3544"}, {"measurement": "MYBL2 tpm_KQ_NTZ", "setting": "[1]", "result": "-0.1727 and -0.165 and -0.155"}, {"measurement": "NAV1 tpm_KQ_NTZ", "setting": "[1]", "result": "0.9647 (2×) and 0.5494"}, {"measurement": "NECTIN4 tpm_KQ_NTZ", "setting": "[1]", "result": "1.229 and 1.239 and 1.198"}, {"measurement": "NKD1 tpm_KQ_NTZ", "setting": "[1]", "result": "0.09084 and 0.3652 and -0.1886"}, {"measurement": "NLRC5 tpm_KQ_NTZ", "setting": "[1]", "result": "0.9096 and 0.9955 and 0.3927"}, {"measurement": "NR4A2 tpm_KQ_NTZ", "setting": "[1]", "result": "-0.3921 and 0.001744 and -0.3514"}, {"measurement": "NRK tpm_KQ_NTZ", "setting": "[1]", "result": "-0.02829 and -0.09407 and -0.0544"}]}
